15 compounds from patent US20090143469A1, “SALTS OF NATEGLINIDE” (priority 2002, published 2009) can be followed below.

The solubility is the dissolved amount per volume that the medium holds.

Where two headings read alike, the source gives them in different places.

Holding throughout (assay type): physicochemical
Data set [1] in a line: Bulk density of nateglinide salts.
The nature of data set [2]: Gain in weight at 84% RH (hygroscopicity) of nateglinide salts. Conditions: for Gain % (gain in weight at 84% RH): 84% RH (relative humidity), * = XRPD changed, confirmed by Thermalgravimetry; for hygroscopicity (in words): different relative humidities.
Data set [3] can be described thus: Solubility in water of nateglinide salts.

As to Lysine, in data set [1], the “Bulk Density” value worked out at 0.50 g/mL.

For `CC(C)C1CCC(C(=O)NC(Cc2ccccc2)C(=O)[O-])CC1.[K+]` (stereo not drawn) [Compound No. 5], in data set [2], the “Gain % (gain in weight at 84% RH)” value was 8.2* %.

On to `CC(C)C1CCC(C(=O)NC(Cc2ccccc2)C(=O)O)CC1.N` (stereo not drawn) [Comp. No. 17], for which the “Gain % (gain in weight at 84% RH)” value in data set [2] is recorded as less than 0.1%.

As for `CC(C)[C@H]1CC[C@H](C(=O)N[C@H](Cc2ccccc2)C(=O)O)CC1.CNC[C@H](O)[C@@H](O)[C@H](O)[C@H](O)CO` [Comp. No. 12], in data set [3], the “Solubility Water” value turned out to be 7.3 mg/mL and the “water solubility compared with other forms (in words)” value was “lower than that of the alkaline metal salts of nateglinide”. Besides, in data set [2], the “Gain % (gain in weight at 84% RH)” value was less than 0.1% and the “hygroscopicity (in words)” value is listed as “non-hygroscopic”. Further, the “Bulk Density” value in data set [1] stood at 0.16 g/mL.

For the compound `CC(C)[C@H]1CC[C@H](C(=O)N[C@H](Cc2ccccc2)C(=O)O)CC1` [Form B of nateglinide, N-(trans-4-isopropylcyclohexylcarbonyl)-D-phenylalanine, reference compound], the solubility in data set [3] stood at 90 µg/mL. For the same compound, in data set [1], the “Bulk Density” value is 0.18 g/mL.

As to `CC(C)[C@H]1CC[C@H](C(=O)N[C@H](Cc2ccccc2)C(=O)[O-])CC1.[Na+]` [Compound No. 1], the “Gain % (gain in weight at 84% RH)” value in data set [2] was determined as 1.19%.

Regarding `[K+]` [Potassium], in data set [3], the “Solubility Water” value was greater than 40 mg/mL. In data set [1], the “Bulk Density” value amounted to 0.17 g/mL.

As for `CC(C)[C@H]1CC[C@H](C(=O)N[C@H](Cc2ccccc2)C(=O)[O-])CC1.CC(C)[C@H]1CC[C@H](C(=O)N[C@H](Cc2ccccc2)C(=O)[O-])CC1.[Mg+2]` [Comp. No. 11], in data set [3], the “Solubility Water” value was 0.45 mg/mL and the “water solubility compared with other forms (in words)” value is “comparable to that of the calcium analogue”. In data set [2], the “Gain % (gain in weight at 84% RH)” value is reported as less than 0.1% and the “hygroscopicity (in words)” value is given as “non-hygroscopic”. In addition, the “Bulk Density” value in data set [1] stood at 0.21 g/mL.

Turning to `CC(C)[C@H]1CC[C@H](C(=O)N[C@H](Cc2ccccc2)C(=O)[O-])CC1.[Na+]` [Sodium], in data set [3], the “Solubility Water” value is greater than 40 mg/mL. The “Bulk Density” value in data set [1] was found to be 0.14 g/mL.

With `CC(C)[C@H]1CC[C@H](C(=O)N[C@H](Cc2ccccc2)C(=O)O)CC1.NCCCCC(N)C(=O)O` [Comp. No. 14], in data set [2], the “Gain % (gain in weight at 84% RH)” value came to 1.3%.

For `CC(C)C1CCC(C(=O)NC(Cc2ccccc2)C(=O)[O-])CC1.CC(C)C1CCC(C(=O)NC(Cc2ccccc2)C(=O)[O-])CC1.[Ca+2]` (stereo not drawn) [Compound No. 9], the “Gain % (gain in weight at 84% RH)” value in data set [2] was found to be 0.4%.

For Ammonium, the “Solubility Water” value in data set [3] is less than 0.2 mg/mL. Also, the “Bulk Density” value in data set [1] is 0.20 g/mL.

For the compound `CC(C)[C@H]1CC[C@H](C(=O)N[C@H](Cc2ccccc2)C(=O)O)CC1.NC(CO)(CO)CO` [Comp. No. 13], the “Solubility Water” value in data set [3] (listed as TRIS) was greater than 40 mg/mL; in data set [3] (listed as tris(hydroxymethyl)-aminomethane salt of nateglinide), “more than 40 mg/ml”. Besides, the “Gain % (gain in weight at 84% RH)” value in data set [2] was less than 0.1%. Besides, the “Bulk Density” value in data set [1] stood at 0.51 g/mL.

For `CC(C)[C@H]1CC[C@H](C(=O)N[C@H](Cc2ccccc2)C(=O)O)CC1` [Form H of nateglinide, N-(trans-4-isopropylcyclohexylcarbonyl)-D-phenylalanine, reference compound], the “Solubility Water” value in data set [3] was found to be 0.09 mg/mL. In data set [2], the “Gain % (gain in weight at 84% RH)” value is given as less than 0.1%. Moreover, the “Bulk Density” value in data set [1] was determined as 0.28 g/mL.

Consider `[Ca]` [Calcium], for which the “Solubility Water” value in data set [3] was determined as 0.54 mg/mL. The “Bulk Density” value in data set [1] turned out to be 0.24 g/mL.
